{"source": "ChEMBL document CHEMBL5038653", "about": "“A Brain-Penetrant and Bioavailable Pyrazolopiperazine BACE1 Inhibitor Elicits Sustained Reduction of Amyloid β In Vivo” (ACS Med Chem Lett, 2022)", "key": {"[1]": {"test": "Ratio of apparent permeability across apical to basolateral side in the presence of P-gp inhibitor elacridar to the absence of P-gp inhibitor elacridar in dog MDCK-MDR1 cells at 5 uM incubated for 120 mins", "type": "ADME, cell-based, Canis lupus familiaris", "conditions": "2 h"}, "[2]": {"test": "Dissociation constant, pKa of the compound by fast UV-spectrometric titration analysis", "type": "physicochemical"}, "[3]": {"test": "Free drug concentration in human plasma measured after 4.5 hrs by HPLC-MS/MS method", "type": "ADME, cell-free"}, "[4]": {"test": "Free drug concentration in dog plasma measured after 4.5 hrs by HPLC-MS/MS method", "type": "ADME, cell-free, Canis lupus familiaris"}, "[5]": {"test": "Drug level in CD-1 mouse brain at 10 mg/kg, po measured at 1 hr post dose", "type": "ADME, organism-based", "conditions": "read-out: Ct"}, "[6]": {"test": "Ratio of unbound drug concentration in brain to blood in CD-1 mouse at 10 mg/kg, po measured at 1 hr post dose", "type": "ADME, organism-based"}, "[7]": {"test": "AUC (0 to infinity) in mouse at 0.28 mg/kg, iv", "type": "ADME, organism-based", "design": "time infinity, route intravenous, dose 0.28 mg/kg", "conditions": "in vivo"}, "[8]": {"test": "Clearance in rat plasma at 0.25 mg/kg, iv", "type": "ADME, organism-based"}, "[9]": {"test": "Clearance in mouse at 0.28 mg/kg, iv relative to liver blood flow", "type": "ADME, organism-based", "conditions": "in vivo"}, "[10]": {"test": "Clearance in rat at 0.25 mg/kg, iv relative to liver blood flow", "type": "ADME, organism-based", "conditions": "in vivo"}, "[11]": {"test": "Volume of distribution at steady state in mouse at 0.28 mg/kg, iv", "type": "ADME, organism-based", "conditions": "in vivo, read-out: Vdss"}, "[12]": {"test": "Volume of distribution at steady state in rat at 0.25 mg/kg, iv", "type": "ADME, organism-based", "conditions": "in vivo, read-out: Vdss"}, "[13]": {"test": "Volume of distribution at steady state in dog at 0.25 mg/kg, iv", "type": "ADME, organism-based, Canis lupus familiaris", "conditions": "in vivo, read-out: Vdss"}, "[14]": {"test": "Half life in mouse at 0.28 mg/kg, iv", "type": "ADME, organism-based", "conditions": "in vivo"}, "[15]": {"test": "Half life in rat at 0.25 mg/kg, iv", "type": "ADME, organism-based", "conditions": "in vivo"}, "[16]": {"test": "Half life in dog at 0.25 mg/kg, iv", "type": "ADME, organism-based, Canis lupus familiaris", "conditions": "in vivo"}, "[17]": {"test": "Cmax in rat at 2.3 mg/kg, po", "type": "ADME, organism-based", "design": "route oral, dose 2.3 mg/kg", "conditions": "in vivo"}, "[18]": {"test": "Tmax in mouse at 2.1 mg/kg, po", "type": "ADME, organism-based", "conditions": "in vivo"}, "[19]": {"test": "AUC (0 to last) in rat at 2.5 mg/kg, po", "type": "ADME, organism-based", "design": "route oral, time 0 - last, dose 2.5 mg/kg", "conditions": "in vivo"}, "[20]": {"test": "Drug level in CD-1 mouse plasma at 10 mg/kg, po measured at 2 hr post dose", "type": "ADME, organism-based"}, "[21]": {"test": "Drug level in CD-1 mouse plasma at 10 mg/kg, po measured at 4 hr post dose", "type": "ADME, organism-based"}, "[22]": {"test": "Drug level in CD-1 mouse brain at 10 mg/kg, po measured at 4 hr post dose", "type": "ADME, organism-based", "conditions": "read-out: Ct"}, "[23]": {"test": "Ratio of unbound drug concentration in brain to blood in CD-1 mouse at 10 mg/kg, po measured at 2 hr post dose", "type": "ADME, organism-based"}, "Beta-secretase 2": {"target": "T1, Beta-secretase 2 (Homo sapiens, UniProt Q9Y5Z0)", "T1 sequence (Q9Y5Z0 whole entry)": "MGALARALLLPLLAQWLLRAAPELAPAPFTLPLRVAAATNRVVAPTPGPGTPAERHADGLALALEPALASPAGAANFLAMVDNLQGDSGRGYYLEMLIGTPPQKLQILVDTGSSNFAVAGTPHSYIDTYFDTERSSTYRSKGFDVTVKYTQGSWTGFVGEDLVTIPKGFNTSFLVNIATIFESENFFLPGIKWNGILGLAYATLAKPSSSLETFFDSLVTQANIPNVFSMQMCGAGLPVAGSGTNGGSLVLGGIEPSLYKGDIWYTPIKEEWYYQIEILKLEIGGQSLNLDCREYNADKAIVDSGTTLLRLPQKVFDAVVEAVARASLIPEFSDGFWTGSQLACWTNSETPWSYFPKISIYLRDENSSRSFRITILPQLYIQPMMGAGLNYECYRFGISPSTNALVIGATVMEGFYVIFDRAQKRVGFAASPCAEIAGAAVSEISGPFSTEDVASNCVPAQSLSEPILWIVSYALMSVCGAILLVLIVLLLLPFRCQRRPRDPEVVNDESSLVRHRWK", "test": "Inhibition of BACE2 (unknown origin)"}, "Cytochrome P450 1A2": {"target": "T2, Cytochrome P450 1A2 (Homo sapiens, UniProt P05177)", "T2 sequence (P05177 whole entry)": "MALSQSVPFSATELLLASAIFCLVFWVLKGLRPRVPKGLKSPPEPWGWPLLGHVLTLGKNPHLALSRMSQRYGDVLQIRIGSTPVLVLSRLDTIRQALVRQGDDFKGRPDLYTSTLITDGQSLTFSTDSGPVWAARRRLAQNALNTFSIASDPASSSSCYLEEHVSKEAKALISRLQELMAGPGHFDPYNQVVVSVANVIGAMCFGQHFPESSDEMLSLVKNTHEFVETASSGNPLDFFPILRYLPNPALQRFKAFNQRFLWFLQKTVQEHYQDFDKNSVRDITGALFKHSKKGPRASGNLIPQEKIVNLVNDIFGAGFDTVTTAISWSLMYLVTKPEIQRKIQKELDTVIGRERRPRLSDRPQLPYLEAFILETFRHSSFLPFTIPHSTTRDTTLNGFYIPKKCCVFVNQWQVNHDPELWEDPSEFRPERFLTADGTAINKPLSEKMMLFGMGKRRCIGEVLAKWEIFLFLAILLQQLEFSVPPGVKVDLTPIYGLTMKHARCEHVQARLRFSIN", "test": "Inhibition of human CYP1A2 by fluorescence plate reader analysis", "type": "ADME"}, "Cytochrome P450 2C9": {"target": "Cytochrome P450 2C9 (Homo sapiens, UniProt P11712)", "sequence (P11712 whole entry)": "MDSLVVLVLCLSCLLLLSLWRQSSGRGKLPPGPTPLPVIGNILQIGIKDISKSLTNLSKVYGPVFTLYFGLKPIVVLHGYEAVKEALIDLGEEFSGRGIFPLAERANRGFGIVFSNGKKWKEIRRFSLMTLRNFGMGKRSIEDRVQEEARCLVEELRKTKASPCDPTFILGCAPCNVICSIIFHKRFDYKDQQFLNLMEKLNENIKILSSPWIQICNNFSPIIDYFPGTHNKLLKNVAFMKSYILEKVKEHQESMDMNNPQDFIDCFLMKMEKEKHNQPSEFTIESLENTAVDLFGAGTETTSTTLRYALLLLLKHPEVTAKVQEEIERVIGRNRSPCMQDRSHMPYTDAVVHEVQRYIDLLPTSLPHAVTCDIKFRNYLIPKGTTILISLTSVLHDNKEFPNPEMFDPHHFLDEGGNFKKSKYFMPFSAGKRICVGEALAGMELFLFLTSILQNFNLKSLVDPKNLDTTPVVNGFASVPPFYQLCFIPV", "test": "Inhibition of human CYP2C9 by fluorescence plate reader analysis", "type": "ADME"}, "[24]": {"test": "Cardiotoxicity in guinea pig assessed as effect on QT interval upto 5 mg/kg, iv administered over 10 mins at 30 mins interval by ECG analysis", "type": "toxicity, organism-based, Cavia porcellus", "conditions": "in vivo"}, "[25]": {"test": "Cardiotoxicity in guinea pig assessed as effect on QT cB interval upto 5 mg/kg, iv administered over 10 mins at 30 mins interval by ECG analysis", "type": "toxicity, organism-based, Cavia porcellus", "conditions": "in vivo"}, "[26]": {"test": "Toxicity in guinea pig assessed as effect on body temperature at 0.63 to 5 mg/kg, iv administered over 10 mins at 30 mins interval", "type": "organism-based, Cavia porcellus", "conditions": "in vivo, dose 0.63-5 mg/kg"}, "[27]": {"test": "In vivo inhibition of CD-1 mouse assessed as remaining amyloid beta (1 to 42 residues) levels in CSF at 10 mg/kg, po measured at 2 hrs", "type": "functional"}, "MDR1": {"system": "MDR1", "test": "Efflux ratio of apparent permeability in dog MDCK-MDR1 cells", "type": "ADME, cell-based, Canis lupus familiaris"}}, "data": [{"smiles": "COc1cnc(C(=O)Nc2ccc(F)c([C@]3(C)Cn4nc(C#N)cc4C(N)=N3)c2)cn1", "values": [{"measurement": "Ratio", "setting": "[1]", "value": 1.56}, {"measurement": "pKa", "setting": "[2]", "value": 7.1}, {"measurement": "fraction unbound at 4.5 h", "setting": "[3]", "value": 0.28}, {"measurement": "fraction unbound at 4.5 h", "setting": "[4]", "value": 0.24}, {"measurement": "concentration at 1 h", "setting": "[5]", "value": 621, "unit": "ng/g"}, {"measurement": "Kp uu at 1 h", "setting": "[6]", "value": 0.3}, {"measurement": "AUC", "setting": "[7]", "value": 206, "unit": "ng·h/mL"}, {"measurement": "clearance", "setting": "[8]", "value": 19, "unit": "mL/min/kg"}, {"measurement": "CL", "setting": "[9]", "value": 25, "unit": "%"}, {"measurement": "CL", "setting": "[10]", "value": 35, "unit": "%"}, {"measurement": "Vd", "setting": "[11]", "value": 5.3, "unit": "L/kg"}, {"measurement": "Vd", "setting": "[12]", "value": 5.3, "unit": "L/kg"}, {"measurement": "Vd", "setting": "[13]", "value": 4.2, "unit": "L/kg"}, {"measurement": "half-life", "setting": "[14]", "value": 2.8, "unit": "h"}, {"measurement": "half-life", "setting": "[15]", "value": 4.3, "unit": "h"}, {"measurement": "half-life", "setting": "[16]", "value": 7.7, "unit": "h"}, {"measurement": "Cmax", "setting": "[17]", "value": 124, "unit": "ng/mL"}, {"measurement": "Tmax", "setting": "[18]", "value": 2.3, "unit": "h"}, {"measurement": "AUClast", "setting": "[19]", "value": 3840, "unit": "ng·h/mL"}, {"measurement": "concentration at 2 h", "setting": "[20]", "value": 866, "unit": "ng/mL"}, {"measurement": "concentration at 4 h", "setting": "[21]", "value": 530, "unit": "ng/mL"}, {"measurement": "concentration at 4 h", "setting": "[22]", "value": 402, "unit": "ng/g"}, {"measurement": "Kp uu at 2 h", "setting": "[23]", "value": 0.29}, {"measurement": "IC50", "setting": "Beta-secretase 2", "value": 0.0115, "unit": "µM"}, {"measurement": "IC50", "setting": "Cytochrome P450 1A2", "value": "> 30", "unit": "µM"}, {"measurement": "IC50", "setting": "Cytochrome P450 2C9", "value": "> 30", "unit": "µM"}, {"measurement": "Activity", "setting": "[24]", "value": "Non-Toxic"}, {"measurement": "Activity", "setting": "[25]", "value": "Non-Toxic"}, {"measurement": "Activity", "setting": "[26]", "value": "Non-Toxic"}, {"measurement": "Activity", "setting": "[27]", "value": 53, "unit": "%"}, {"measurement": "efflux ratio", "setting": "MDR1", "value": 5.3}]}]}
